Source: US11850220B2 (Augusta University Research Institute, Inc., priority 2020, dated 2023)

Tests used:
Assay type in all cases: in vivo
[1] = system: acetic acid-induced abdominal writhing; test: acetic acid-induced abdominal writhing technique (peripheral analgesic); details: for Potency: Relative to indomethacin; for % Inhibition/protection / Writing reflex ± SEM: in vivo; on % Inhibition/protection: test concentration or dose not given here; on Writing reflex ± SEM: test concentration or dose not given here
[2] = system: carrageenan-induced paw edema; test: carrageenan-induced paw edema technique (anti-inflammatory); details: for Observed (1/property): 1/(% inhibition of edema thickness at 3 h effect); on Observed (1/property): test concentration or dose not given here; on Potency (% Inhibition relative to indomethacin at 3 h effect): test concentration or dose not given here
Source text: Anti-inflammatory properties of the ibuprofen-amino acid conjugate (5a-j) and ibuprofen-amino acid-4-aminophenol conjugates 7a-j were studied by the standard carrageenan-induced paw edema technique (Naumov, R. N. et al., Bioorg. Med. Chem. Lett. 2015, 25, 2314-2320; Tiwari, A. D. et al., Org. Biomol. Chem. 2014, 12, 7238-7249).

hot plate = hot plate technique (central analgesic); details: for Potency: Relative to indomethacin at 120 min.
[3] = % inhibition of edema thickness at 3 h effect, Table 7
[4] = anti-inflammatory property (% inhibition of edema at 3 h), Table 8

Compound | Potency [1] | % Inhibition/protection [1] | Writing reflex ± SEM [1] | Observed (1/property) ([2]; Table 7) | % inhibition of edema ([2]; 1 h) | Mean edema thickness ([2]; 1 h) | % inhibition of edema ([2]; 2 h) | Mean edema thickness ([2]; 2 h) | % inhibition of edema ([2]; 3 h) | Mean edema thickness ([2]; 3 h) | % inhibition of edema ([2]; 4 h) | Mean edema thickness ([2]; 4 h) | % inhibition of edema ([2]; 24 h) | Mean edema thickness ([2]; 24 h) | Observed property [2, 3] | Observed property [2, 4] | Potency (% Inhibition relative to indomethacin at 3 h effect) [2] | % protection (hot plate; After 30 min.) | Latency period ± SEM (hot plate; After 30 min.) | % protection (hot plate; After 60 min.) | other results
CC(C)Cc1ccc(C(C)C(=O)N[C@@H](CC(C)C)C(=O)O)cc1 (stereo partly drawn) [Compound 5g] | 89 | 48.9% | 49.7 ± 1.2 | 0.01724 | 5% | 1.17 ± 0.07 mm | 24% | 1.15 ± 0.06 mm | 58% | 0.55 ± 0.04 mm | 40% | 0.75 ± 0.05 mm | 42% | 0.11 ± 0.04 mm | 58% | 58% | 73% | (27.7) % | 3.09 ± 0.04 s | (28.7) % | Latency period ± SEM (hot plate; After 60 min.): 2.87 ± 0.03 s; % protection (hot plate; After 90 min.): (4.1) %; Latency period ± SEM (hot plate; After 90 min.): 2.29 ± 0.05 s; % protection (hot plate; After 120 min.): (3.7) %; Latency period ± SEM (hot plate; After 120 min.): 2.27 ± 0.03 s; Potency (hot plate): 7
CC[C@H](C)C(NC(=O)C(C)c1ccc(CC(C)C)cc1)C(=O)O (stereo in doubt) [Compound 5f, (2-(4-Isobutylphenyl)propanoyl)-L-isoleucine] | 85 | 46.8% | 51.8 ± 1.6 | 0.01613 | 27% | 0.90 ± 0.05 mm | 29% | 1.07 ± 0.06 mm | 62% | 0.50 ± 0.03 mm | 29% | 0.89 ± 0.04 mm | 47% | 0.10 ± 0.03 mm | 62% | 62% | 78% | (14.9) % | 2.78 ± 0.05 s | (15.2) % | Latency period ± SEM (hot plate; After 60 min.): 2.57 ± 0.07 s; % protection (hot plate; After 90 min.): (25.9) %; Latency period ± SEM (hot plate; After 90 min.): 2.77 ± 0.05 s; % protection (hot plate; After 120 min.): (48.9) %; Latency period ± SEM (hot plate; After 120 min.): 3.26 ± 0.04 s; Potency (hot plate): 86
CC(C)Cc1ccc(C(C)C(=O)N[C@@H](Cc2ccccc2)C(=O)O)cc1 (stereo partly drawn) [Compound 5e, (2-(4-Isobutylphenyl)propanoyl)-L-phenylalanine] | 84 | 46.0% | 52.5 ± 1.2 | 0.01613 | 25% | 0.92 ± 0.07 mm | 19% | 1.22 ± 0.08 mm | 62% | 0.50 ± 0.04 mm | 30% | 0.88 ± 0.05 mm | 74% | 0.05 ± 0.02 mm | 62% | 62% | 78% | (24.0) % | 3.00 ± 0.04 s | (30.5) % | Latency period ± SEM (hot plate; After 60 min.): 2.91 ± 0.01 s; % protection (hot plate; After 90 min.): (35.5) %; Latency period ± SEM (hot plate; After 90 min.): 2.98 ± 0.03 s; % protection (hot plate; After 120 min.): (48.4) %; Latency period ± SEM (hot plate; After 120 min.): 3.25 ± 0.02 s; Potency (hot plate): 86
CSCC[C@H](NC(=O)C(C)c1ccc(CC(C)C)cc1)C(=O)O (stereo partly drawn) [Compound 5i, (2-(4-Isobutylphenyl)propanoyl)-L-methionine] | 40 | 22.2% | 75.7 ± 1.9 | 0.02222 | 24% | 0.93 ± 0.04 mm | 54% | 0.69 ± 0.05 mm | 45% | 0.71 ± 0.04 mm | 12% | 1.10 ± 0.06 mm | 79% | 0.04 ± 0.01 mm | 45% | 45% | 56% | (32.2) % | 3.20 ± 0.03 s | (51.1) % | Latency period ± SEM (hot plate; After 60 min.): 3.35 ± 0.06 s; % protection (hot plate; After 90 min.): (61.4) %; Latency period ± SEM (hot plate; After 90 min.): 3.55 ± 0.07 s; % protection (hot plate; After 120 min.): (13.2) %; Latency period ± SEM (hot plate; After 120 min.): 2.48 ± 0.04 s; Potency (hot plate): 23
CC(C)Cc1ccc(C(C)C(=O)NCCC(=O)O)cc1 (stereo not drawn) [Compound 5c, 3-(2-(4-Isobutylphenyl)propanamido)propanoic acid] | 8 | 4.2% | 93.2 ± 1.4 | 0.01887 | 43% | 0.70 ± 0.03 mm | 29% | 1.07 ± 0.07 mm | 53% | 0.61 ± 0.04 mm | 36% | 0.80 ± 0.03 mm | 21% | 0.15 ± 0.01 mm | 53% | 53% | 66% | (16.5) % | 2.82 ± 0.04 s | (35.0) % | Latency period ± SEM (hot plate; After 60 min.): 3.01 ± 0.02 s; % protection (hot plate; After 90 min.): (20.5) %; Latency period ± SEM (hot plate; After 90 min.): 2.65 ± 0.05 s; % protection (hot plate; After 120 min.): (20.1) %; Latency period ± SEM (hot plate; After 120 min.): 2.63 ± 0.10 s; Potency (hot plate): 36
CC(C)Cc1ccc(C(C)C(=O)N[C@@H](C)C(=O)O)cc1 (stereo partly drawn) [Compound 5b, (2-(4-Isobutylphenyl)propanoyl)-L-alanine] | 80 | 43.8% | 54.7 ± 2.0 | 0.01923 | 34% | 0.81 ± 0.04 mm | 37% | 0.95 ± 0.02 mm | 52% | 0.63 ± 0.01 mm | 51% | 0.61 ± 0.03 mm | 32% | 0.13 ± 0.03 mm | 52% | 52% | 65% | (12.8) % | 2.73 ± 0.03 s | (17.0) % | Latency period ± SEM (hot plate; After 60 min.): 2.61 ± 0.12 s; % protection (hot plate; After 90 min.): (20.9) %; Latency period ± SEM (hot plate; After 90 min.): 2.66 ± 0.01 s; % protection (hot plate; After 120 min.): (21.9) %; Latency period ± SEM (hot plate; After 120 min.): 2.67 ± 0.06 s; Potency (hot plate): 39
